From patent US12559553B2, “IL-31 modulators for treating FXR-induced pruritus” (Gilead Sciences, Inc., priority 2021, dated 2026)
Several values for one entry are separate records, joined by “and”; a condition that tells them apart may be missing. Equal values may be shown once. Entries after “also recorded” stand apart in the source; their conditions may differ.

What was measured:
human IL-31 = test: IL-31 in chimeric PXB mice with human hepatocytes treated with OCA; assay type: in vivo; conditions: OCA 10 mg/kg QD for 18 days
[1] = Cholestasis (ALP and BA levels) in PSC and PBC patients; assay type: in vivo, human
IL-4 = test: Serum IL-4 and other inflammatory markers in the CILO NASH study; assay type: in vivo, human; conditions: NASH patients
Description: IL-31 is expressed and secreted by activated T helper 2 (Th2) cell. IL-4, a type II immune cytokine, was associated with activation of Th2 cells and serum IL-31 levels in patients with atopic dermatitis. Serum IL-4 levels were assessed in the CILO NASH and PSC studies.

IL-31 [2] = test: Serum IL-31 (SIMOA assay), Phase 2 study of cilofexor in PSC patients; assay type: in vivo, human
Description: (§1) Serum IL-31 (SIMOA® assay; Myriad, Austin, TX) was measured in two Phase 2 studies of cilofexor (CILO, a non-steroidal FXR agonist) in PSC (n=52) and PBC (n=71). In all studies, patients were randomized 2:2:1 to CILO 100 mg, 30 mg, or placebo daily. Associations between serum IL-31 and pruritus-related adverse events and patient-reported outcomes (Visual Analog Scale [VAS] and 5-D Itch) were determined.

FGF-19 [3] = test: FGF-19 target engagement in healthy volunteers; assay type: in vivo, human; conditions: CILO 100 mg, 4 hr post-dose
Description: (§2) Activation of FXR in the intestinal epithelial cells induces FGF-19 secretion. FGF-19 suppressed CYP7A1 expression, which is a key enzyme to […] 7α-hydroxycholesterol. 7α-hydroxycholesterol is metabolized into 7α-hydroxy-4-cholesten-3-one (C4). The increased FGF-19 and reduced C4 levels in circulation are target engagement assessments for FXR agonists.

IL-31 [4] = test: Serum IL-31 pre-dose and post-dose, CILO phase 1 study in healthy volunteers; assay type: in vivo, human
Description: In the CILO phase 1 study, serum IL-31 levels were assessed in pre-dose and post-dose (from 1 to 8 hr) samples from the healthy volunteers (HVs) with placebo or CILO 30 mg, 100 mg or 300 mg. The HVs with CILO 100 mg or 300 mg had elevated serum IL-31 levels with peak concentration at 4-6 hr post-dose samples (data not shown). A similar intensive sampling study was also performed in the CILO NASH study. IL-31 levels in the serially collected samples were compared in NASH patients and HVs with CILO 100 mg. In HVs with CILO 100 mg, serum IL-31 achieved the peak concentration of 0.22 pg/mL and 2.6 fold increase from pre-dose (data not shown). NASH patients with the same dose had more increased serum IL-31 than HV.

IL-31 [5] = test: Serum IL-31 in serially collected samples (intensive sampling), CILO NASH study; assay type: in vivo, human; conditions: NASH patients, CILO 100 mg
Description: A similar intensive sampling study was also performed in the CILO NASH study. IL-31 levels in the serially collected samples were compared in NASH patients and HVs with CILO 100 mg. In HVs with CILO 100 mg, serum IL-31 achieved the peak concentration of 0.22 pg/mL and 2.6 fold increase from pre-dose (data not shown). NASH patients with the same dose had more increased serum IL-31 than HV. […] Activation of FXR in the intestinal epithelial cells induces FGF-19 secretion. FGF-19 suppressed CYP7A1 expression, which is a key enzyme to […] 7α-hydroxycholesterol. 7α-hydroxycholesterol is metabolized into 7α-hydroxy-4-cholesten-3-one (C4). The increased FGF-19 and reduced C4 levels in circulation are target engagement assessments for FXR agonists.

[6] = Pruritus adverse events, Phase 2 study of cilofexor in PSC patients; assay type: in vivo, human
Description: as §1

FGF-19 [7] = test: FGF-19 target engagement in NASH patients; assay type: in vivo, human
Description: as §2

IL-31 [8] = test: Serum IL-31 (SIMOA assay), Phase 2 study of cilofexor in PBC patients; assay type: in vivo, human
Description: Serum IL-31 (SIMOA® assay; Myriad, Austin, TX) was measured in two Phase 2 studies of cilofexor (CILO, a non-steroidal FXR agonist) in PSC (n=52) and PBC (n=71). In all studies, patients were randomized 2:2:1 to CILO 100 mg, 30 mg, or placebo daily. Associations between serum IL-31 and pruritus-related adverse events and patient-reported outcomes (Visual Analog Scale [VAS] and 5-D Itch) were determined. In PBC, IL-31 correlated to VAS (ρ=0.42, p<0.001) and 5-D Itch (ρ=0.58, p<0.001) (Table 6).

[9] = system: 7α-hydroxy-4-cholesten-3-one (C4); test: C4 levels in circulation, CILO NASH study; assay type: in vivo, human
Description: as §2

IL-31 [10] = test: Serum IL-31 (SIMOA assay), Phase 2 study of cilofexor in non-cirrhotic NASH patients; assay type: in vivo, human; conditions: for Serum IL-31, median (IQR) / Increase of IL-31 in patients with grade 2 or 3 pruritus versus the others: NASH
Description: Serum IL-31 (SIMOA©assay; Myriad, Austin, TX) was measured in a Phase 2 study of cilofexor (CILO, a non-steroidal FXR agonist) in non-cirrhotic NASH (n=140) patients. Patients were randomized 2:2:1 to CILO 100 mg, 30 mg, or placebo daily. Associations between serum IL-31 and pruritus-related adverse events and patient-reported outcomes (Visual Analog Scale [VAS] and 5-D Itch) were determined.

[11] = serially collected blood samples, 100 mg CILO, 6 hr post-dose
[12] = PBC, serially collected blood samples, 100 mg CILO, 5 hr post-dose

Structure (SMILES): CC[C@H]1[C@@H](O)[C@@H]2[C@H](CC[C@]3(C)[C@@H]([C@H](C)CCC(=O)O)CC[C@@H]23)[C@@]2(C)CC[C@@H](O)C[C@@H]12 [OCA, obeticholic acid]
- Hepatic IL-31 mRNA expression vs vehicle (human IL-31): 7.8 fold

Structure (SMILES): O=C(O)c1ccnc(N2CC(O)(c3ccc(OCc4c(-c5c(Cl)cccc5Cl)noc4C4CC4)cc3Cl)C2)c1 [CILO, cilofexor]
- Effect on cholestasis (ALP and BA levels) [1]: improved cholestasis
- Effect on other inflammatory markers (IL-4 and IL-18) (IL-4): without changing
- Effect on serum IL-4 (IL-4): did not elevate
- Dose-dependent effect on serum IL-31 (IL-31 [2]): not observed
- Effect on serum IL-31 levels (IL-31 [2]; 12-week treatment): did not alter; also recorded: no effect
- FGF-19 peak concentration (FGF-19 [3]): 591.6 pg/mL
- Serum IL-31 peak concentration (IL-31 [4]; CILO 100 mg): 0.22 pg/mL
- Serum IL-31 levels post-dose (IL-31 [4]; CILO 100 mg or 300 mg): elevated
- Time of peak serum IL-31 concentration post-dose (IL-31 [4]; CILO 100 mg or 300 mg): 4 to 6 h
- Serum IL-31 increase from pre-dose (IL-31 [4]; CILO 100 mg, at peak): 2.6 fold
- Serum IL-31 peak concentration (IL-31 [5]; 4-6 hr post-dose): 13 pg/mL and 12 to 13 pg/mL
- Serum IL-31 increase from pre-dose (IL-31 [5]; at peak): 23.6 fold and 21.8-23.6 fold
- Effect on pruritus [6]: did not exacerbate pruritus
- Any Grade pruritus, patients ([6]; CILO 30 mg): 5
- Grade 1 pruritus, patients ([6]; CILO 30 mg): 2
- Grade 2 pruritus, patients ([6]; CILO 30 mg): 1
- Grade 3 pruritus, patients ([6]; CILO 30 mg): 2
- Patients who reported grade 2 or 3 pruritus ([6]; CILO 30 mg): 3 subjects
- Any Grade pruritus, patients ([6]; CILO 100 mg): 8
- Grade 1 pruritus, patients ([6]; CILO 100 mg): 5
- Grade 2 pruritus, patients ([6]; CILO 100 mg): 1
- Grade 3 pruritus, patients ([6]; CILO 100 mg): 2
- Patients who reported grade 2 or 3 pruritus ([6]; CILO 100 mg): 3 subjects
- FGF-19 peak concentration (FGF-19 [7]; NASH patients, CILO 100 mg, 4 hr post-dose): 829.7 pg/mL
- FGF-19 increase from pre-dose (FGF-19 [7]; [11]): 45.9 fold
- FGF-19 peak concentration (FGF-19 [7]; [11]): around 1826 pg/mL
- FGF-19 median at pre-dose (FGF-19 [7]; serially collected blood samples, 100 mg CILO, pre-dose): 39.8 pg/mL
- Dose-dependent effect on serum IL-31 (IL-31 [8]; PBC patients): not observed
- Effect on serum IL-31 levels (IL-31 [8]; PBC patients, fasting samples at Weeks 1, 4 and 12, compared to placebo): did NOT change; also recorded: no effect; also recorded: did not alter
- IL-31 increase from pre-dose (IL-31 [8]; [12]): 2.5 fold
- IL-31 level post-dose (IL-31 [8]; [12]): 7.4 pg/mL
- IL-31 median level at pre-dose (IL-31 [8]; PBC, serially collected blood samples, 100 mg CILO, pre-dose): 3 pg/mL
- C4 levels compared to placebo ([9]; W24, CILO 30 mg): significantly declined
- C4 levels compared to placebo ([9]; W24, CILO 100 mg): significantly declined
- Effect on serum IL-31 (IL-31 [10]; NASH patients, week 1 to week 24, 30 mg and 100 mg): increased serum IL-31 in a dose-dependent manner
- Serum IL-31, median (IQR) (IL-31 [10]; CILO 30 mg, Baseline): 0.09 pg/mL
- Serum IL-31, median (IQR) (IL-31 [10]; CILO 30 mg, Week 1): 0.15 pg/mL
- Serum IL-31, median (IQR) (IL-31 [10]; CILO 30 mg, Week 4): 0.105 pg/mL
- Serum IL-31, median (IQR) (IL-31 [10]; CILO 30 mg, Week 8): 0.14 pg/mL
- Serum IL-31, median (IQR) (IL-31 [10]; CILO 30 mg, Week 12): 0.145 pg/mL
- Serum IL-31, median (IQR) (IL-31 [10]; CILO 30 mg, Week 24): 0.15 (0.062, 0.27) pg/mL and 0.15 pg/mL
- Serum IL-31, median (IQR) (IL-31 [10]; CILO 100 mg, Baseline): 0.083 pg/mL
- Serum IL-31, median (IQR) (IL-31 [10]; CILO 100 mg, Week 1): 0.21 pg/mL
- Serum IL-31, median (IQR) (IL-31 [10]; CILO 100 mg, Week 4): 0.24 pg/mL
- Serum IL-31, median (IQR) (IL-31 [10]; CILO 100 mg, Week 8): 0.26 pg/mL
- Serum IL-31, median (IQR) (IL-31 [10]; CILO 100 mg, Week 12): 0.26 pg/mL
- Serum IL-31, median (IQR) (IL-31 [10]; CILO 100 mg, Week 24): 0.26 (0.13, 0.82) pg/mL and 0.26 pg/mL
- Increase of IL-31 in patients with grade 2 or 3 pruritus versus the others (IL-31 [10]; W1): 5.1 fold
- Increase of IL-31 in patients with grade 2 or 3 pruritus versus the others (IL-31 [10]; W4): 2.9 fold
- Increase of IL-31 in patients with grade 2 or 3 pruritus versus the others (IL-31 [10]; W8): 3.8 fold
- Increase of IL-31 in patients with grade 2 or 3 pruritus versus the others (IL-31 [10]; W12): 4.5 fold
- Increase of IL-31 in patients with grade 2 or 3 pruritus versus the others (IL-31 [10]; W24): 7 fold
